Measured values as given in patent US20070020704A1, “Diaryl ureas with kinase inhibiting activity” (priority 2003, published 2007).
pIC50: −log10 of the molar value.

How the values were obtained:
[1] = system: phospho-ERK; experiment: Immunohistochemical staining of tumor sections with anti-pERK antibodies (melanoma biopsies pre- and post-treatment); format: in vivo, human; settings: subject having melanoma, 600 mg BID; post- vs pre-treatment biopsy
Excerpt: 3. Immunohistochemical Staining of Tumor Sections with Anti-pERK Antibodies
Activated Raf kinase phosphorylates and activates MEK (mitogen-activated protein kinase kinase), which in turn phosphorylates and activates ERK (extracellular signal-regulated kinase), which translocates to the nucleus and modifies gene expression. This pathway is often aberrantly activated in tumor cells due to the presence of activated ras, mutant BRAF, or elevation of growth factor receptors. A semi-quantitative immunohistochemical method was developed to detect phosphorylated ERK (pERK) in human tumor biopsies as a patient selection biomarker for determining whether a patient will be responsive to a compound of the present invention, and also to assess its efficacy. The antibody used was a polyclonal antibody (rabbit) that detects the phosphorylation status of p44 and p42 (phospho-p44/42 MAPK (Thr202/Tyr204)) MAP kinases (ERK1 and ERK2). The procedure was accomplished as follows:
1. Tumor samples were obtained from patients. Samples were embedded in paraffin and sectioned.
2. […]
20. Each tissue section was assessed using the Bioquant TCW98 image analysis system. […]
A subject having a melanoma was treated with a compound in accordance with the present invention, and then a biopsy sample was assessed using the assay described above. […]

[2] = system: NCI-H460 lung (mutant k-Ras) xenograft; experiment: Tumor treatment, NCI-H460 xenograft model; format: in vivo; settings: p.o., qd×14
Procedure: (§1) All treatments were administered p.o. on a qd×14 schedule. […] Similarly, the growth of MIA PaCa-2 tumors was inhibited 44%, 66%, and 73% at dosages of 10, 30, and 100 mg/kg/dose, respectively. The growth of NCI-H460 tumors was inhibited 27% and 56% at dosages of 10 and 30 mg/kg/dose of this Raf kinase inhibitor. The SK-OV-3 model was slightly more sensitive, generating 45%-81% tumor growth inhibitions at dosages of 3 to 100 mg/kg/dose.

[3] = system: MIA PaCa-2 pancreatic (mutant k-Ras) xenograft; experiment: Tumor treatment, MIA PaCa-2 xenograft model; format: in vivo, CB17 SCID female mice; settings: p.o., qd×14
Procedure: as §1
HCT 116, SK-OV-3, and MIA PaCa-2 stock tumors were maintained as serial s.c. passages of fragments in CD-1 Nu/Nu female mice (HCT 116 and SK-OV-3) or CB17 SCID female mice (MIA-PaCa-2). Treatments were administered orally and were initiated against established tumors. Tumor dimensions were measured via calipers 2-3 times per week and were converted into tumor mass by the formula […], where L and W refer to the largest and smallest dimensions, respectively.

[4] = system: c-KIT phosphor-AKT; experiment: Cellular assay c-KIT pathway phosphor-AKT; format: cell-based
[5] = system: Raf Pathway phospho-ERK, Melanoma; experiment: Cellular assay Raf pathway phospho-ERK, melanoma; format: cell-based
[6] = system: melanoma; experiment: Response of a subject having melanoma (PET and CT scans); format: in vivo, human; settings: 600 mg BID
Procedure: A subject having a melanoma was treated with a compound in accordance with the present invention, and then a biopsy sample was assessed using the assay described above.
The subject was then administered a 600 mg BID dose of the compound.
A response to the compound was observed by comparing PET scans taken at baseline vs. the second cycle. […] This response corresponds with a decrease in the percent of nuclei expressing pERK in the post-treatment biopsy. […] The compound utilized was N-[4-chloro-3-(trifluoromethyl)phenyl]-N′-{4-[2-N-methylcarbamoyl-4-pyridyloxy]phenyl}urea.

[7] = biological target: HER2 Receptor (Homo sapiens, UniProt P04626); settings: cellular assay, HER 1 & 2 Pathway
[8] = system: Raf Pathway phospho-ERK, Breast; experiment: Cellular assay Raf pathway phospho-ERK, breast (Bio-Plex phospho-ERK1/2 immunoassay); format: cell-based; settings: Homo sapiens, inhibition of target phosphorylation in whole cells by 50%
Procedure: A 96-well phospho-ERK (PERK) immunoassay, using laser flow cytometry platform has been established to measure inhibition of basal pERK in cell lines. MDA-MB-231 cells were plated at 50,000 cells per well in 96-well microtitre plates in complete growth media. For effects of test compounds on basal pERK1/2 inhibition, the next day after plating, MDA-MB-231 cells were transferred to DMEM with 0.1% BSA and incubated with test compounds diluted 1:3 to a final concentration of 3 μM to 12 nM in 0.1% DMSO. Cells were incubated with test compounds for 2 h, washed, and lysed in Bio-Plex whole cell lysis buffer A. Samples are diluted with buffer B 1:1 (v/v) and directly transferred to assay plate or frozen at −80 C degrees until processed. 50 μL of diluted MDA-MB-231 cell lysates were incubated with about 2000 of 5 micron Bio-Plex beads conjugated with an anti-ERK1/2 antibody overnight on a shaker at room temperature. The next day, biotinylated phospho-ERK1/2 sandwich immunoassay was performed, beads are washed 3 times during each incubation and then 50 μL of PE-strepavidin was used as a developing reagent. The relative fluorescence units of pERK1/2 were detected by counting 25 beads with Bio-Plex flow cell (probe) at high sensitivity. The IC50 was calculated by taking untreated cells as maximum and no cells (beads only) as background.

Sequence of HER2 Receptor (P04626 23-1255): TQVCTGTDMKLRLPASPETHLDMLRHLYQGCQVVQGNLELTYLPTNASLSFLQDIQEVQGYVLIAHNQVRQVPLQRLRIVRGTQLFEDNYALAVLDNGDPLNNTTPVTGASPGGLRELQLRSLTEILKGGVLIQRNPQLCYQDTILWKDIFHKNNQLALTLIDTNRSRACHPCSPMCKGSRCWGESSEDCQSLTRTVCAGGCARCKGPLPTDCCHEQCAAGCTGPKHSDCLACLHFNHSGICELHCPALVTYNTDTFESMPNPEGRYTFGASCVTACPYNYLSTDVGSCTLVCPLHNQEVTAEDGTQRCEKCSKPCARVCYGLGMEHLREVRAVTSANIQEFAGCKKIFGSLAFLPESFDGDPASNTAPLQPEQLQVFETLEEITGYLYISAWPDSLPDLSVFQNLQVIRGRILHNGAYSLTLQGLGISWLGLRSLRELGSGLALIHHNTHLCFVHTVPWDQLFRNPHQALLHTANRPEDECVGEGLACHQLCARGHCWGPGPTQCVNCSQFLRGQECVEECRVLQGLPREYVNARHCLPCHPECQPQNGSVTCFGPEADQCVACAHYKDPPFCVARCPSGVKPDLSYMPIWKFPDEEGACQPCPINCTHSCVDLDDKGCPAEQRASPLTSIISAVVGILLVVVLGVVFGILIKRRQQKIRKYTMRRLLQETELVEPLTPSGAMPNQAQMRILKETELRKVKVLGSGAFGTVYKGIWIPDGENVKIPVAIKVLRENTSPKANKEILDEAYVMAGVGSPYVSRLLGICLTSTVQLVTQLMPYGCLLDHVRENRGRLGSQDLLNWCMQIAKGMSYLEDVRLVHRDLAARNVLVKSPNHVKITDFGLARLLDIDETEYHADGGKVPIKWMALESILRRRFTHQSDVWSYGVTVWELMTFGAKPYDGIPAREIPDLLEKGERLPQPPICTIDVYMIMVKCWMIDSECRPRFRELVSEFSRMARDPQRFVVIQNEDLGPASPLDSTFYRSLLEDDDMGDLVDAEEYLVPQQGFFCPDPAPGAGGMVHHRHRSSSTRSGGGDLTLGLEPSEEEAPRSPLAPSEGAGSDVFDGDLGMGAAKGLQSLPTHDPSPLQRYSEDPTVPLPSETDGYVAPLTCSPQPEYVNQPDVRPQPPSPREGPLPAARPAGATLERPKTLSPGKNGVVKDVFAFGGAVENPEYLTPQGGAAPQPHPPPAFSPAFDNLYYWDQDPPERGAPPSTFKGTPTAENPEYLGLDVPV

melting point [°C]	SMILES	other results
187 to 188	CNC(=O)c1cc(Oc2ccc(NC(=O)Nc3cc(C(F)(F)F)ccc3OC)c(Cl)c2)ccn1 [Entry 17, ({2-chloro-4-[2-(N-methylcarbamoyl)(4-pyridyloxy)]phenyl}amino)-N-[2-methoxy-5-(trifluoromethyl)phenyl]carboxamide]	–
147 to 151	CNC(=O)c1cc(Oc2ccc(NC(=O)Nc3ccc(Cl)c(C(F)(F)F)c3)c(Cl)c2)ccn1 [Entry 49, {4-[3-chloro-4-({[4-chloro-3-(trifluoromethyl)phenyl]amino}carbonylamino)phenoxy](2-pyridyl)}-N-methylcarboxamide]	–
187 to 189	CCNC(=O)c1cc(Oc2ccc(NC(=O)Nc3ccc(Cl)c(C(F)(F)F)c3)cc2)ccn1 [Entry 51, N-[4-chloro-3-(trifluoromethyl)phenyl]({4-[2-(N-ethylcarbamoyl)(4-pyridyloxy)]phenyl}amino)carboxamide]	–
217 to 219	CNC(=O)c1cc(Oc2ccc(NC(=O)Nc3ccc(Br)c(C(F)(F)F)c3)cc2Cl)ccn1 [Entry 87, {4-[4-({[4-bromo-3-(trifluoromethyl)phenyl]amino}carbonylamino)-2-chlorophenoxy](2-pyridyl)}-N-methylcarboxamide]	–
140 to 144	CNC(=O)c1cc(Oc2ccc(NC(=O)Nc3cc(C(F)(F)F)c(Cl)cc3OC)cc2)ccn1 [Entry 95, N-[4-chloro-2-methoxy-5-(trifluoromethyl)phenyl]({4-[2-(N-methylcarbamoyl)(4-pyridyloxy)]phenyl}amino)carboxamide]	–
244 to 245	CNC(=O)c1cc(Oc2ccc(NC(=O)Nc3cc(C(F)(F)F)c(Cl)cc3OC)c(Cl)c2)ccn1 [Entry 96, N-[4-chloro-2-methoxy-5-(trifluoromethyl)phenyl]({2-chloro-4-[2-(N-methylcarbamoyl)(4-pyridyloxy)]phenyl}amino)carboxamide]	–
220 to 221	CNC(=O)c1cc(Oc2ccc(NC(=O)Nc3cc(C(F)(F)F)c(Cl)cc3OC)cc2Cl)ccn1 [Entry 97, N-[4-chloro-2-methoxy-5-(trifluoromethyl)phenyl]({3-chloro-4-[2-(N-methylcarbamoyl)(4-pyridyloxy)]phenyl}amino)carboxamide]	–
180 to 181	CCNC(=O)c1cc(Oc2ccc(NC(=O)Nc3cc(C(F)(F)F)c(Cl)cc3OC)cc2)ccn1 [Entry 99, N-[4-chloro-2-methoxy-5-(trifluoromethyl)phenyl]({4-[2-(N-ethylcarbamoyl)(4-pyridyloxy)]phenyl}amino)carboxamide]	–

The next lines start with the molecule.

SMILES	melting point [°C]	other results
COc1ccc(C(F)(F)F)cc1NC(=O)Nc1ccc(Oc2ccnc(C(N)=O)c2)cc1 [Entry 14, 4-[4-({N-[2-methoxy-5-(trifluoromethyl)phenyl]carbamoyl}amino)phenoxy]pyridine-2-carboxamide]	114 to 117	–
CNC(=O)c1cc(Oc2ccc(NC(=O)Nc3cc(C(F)(F)F)ccc3OC)c(C)c2)ccn1 [Entry 16, {4-[4-({N-[2-methoxy-5-(trifluoromethyl)phenyl]carbamoyl}amino)-3-methylphenoxy](2-pyridyl)}-N-methylcarboxamide]	210 to 213	–
CCNC(=O)c1cc(Oc2ccc(NC(=O)Nc3cc(C(F)(F)F)ccc3OC)cc2)ccn1 [Entry 19, ({4-[2-(N-ethylcarbamoyl)(4-pyridyloxy)]phenyl}amino)-N-[2-methoxy-5-(trifluoromethyl)phenyl]carboxamide]	194 to 196	–
CNC(=O)c1cc(Oc2ccc(NC(=O)Nc3cc(C(F)(F)F)ccc3OC)cc2Cl)ccn1 [Entry 20, ({3-chloro-4-[2-(N-methylcarbamoyl)(4-pyridyloxy)]phenyl}amino)-N-[2-methoxy-5-(trifluoromethyl)phenyl]carboxamide]	214 to 216	–
CNC(=O)c1cc(Sc2ccc(NC(=O)Nc3cc(C(F)(F)F)ccc3OC)cc2)ccn1 [Entry 27, N-[2-methoxy-5-(trifluoromethyl)phenyl]({4-[2-(N-methylcarbamoyl)(4-pyridylthio)]phenyl}amino)carboxamide]	218 to 219	–
CCNC(=O)c1cc(Oc2ccc(NC(=O)Nc3ccc(Br)c(C(F)(F)F)c3)cc2)ccn1 [Entry 88, N-[4-bromo-3-(trifluoromethyl)phenyl]({4-[2-(N-ethylcarbamoyl)(4-pyridyloxy)]phenyl}amino)carboxamide]	183 to 184	–
CNC(=O)c1cc(Oc2ccc(NC(=O)Nc3ccc(Cl)c(C(F)(F)F)c3)cc2)ccn1 [N-[4-chloro-3-(trifluoromethyl)phenyl]-N′-{4-[2-N-methylcarbamoyl-4-pyridyloxy]phenyl}urea]	–	percent of nuclei expressing pERK in the post-treatment biopsy [1]: decrease; growth of NCI-H460 tumors inhibited ([2]; 10 mg/kg/dose): 27%; growth of NCI-H460 tumors inhibited ([2]; 30 mg/kg/dose): 56%; growth of MIA PaCa-2 tumors inhibited ([3]; 10 mg/kg/dose): 44%; growth of MIA PaCa-2 tumors inhibited ([3]; 30 mg/kg/dose): 66%; growth of MIA PaCa-2 tumors inhibited ([3]; 100 mg/kg/dose): 73%; pIC50 [4]: 6.40; pIC50 [5]: 6.06; PET scan metabolic activity after treatment ([6]; baseline vs. second cycle): completely silent; CT scan measurements by RECIST ([6]; through cycle 6 of treatment): stable disease; IC50 (nM) [7]: INACTIVE; pIC50 [8]: 7.10
